Several values for one entry are separate records, joined by “and”; a condition that tells them apart may be missing. Equal values may be shown once. Entries after “also recorded” stand apart in the source; their conditions may differ. Bridge positions count the residues as written; N and C are the ends. Peptide text beside a SMILES is read from it. * marks the point of attachment. Pentanoyl = CCCCC(=O)*
Key:
[1] = system: Lewis rats immunized with spinal cord homogenate; experiment: treatment of chronic relapsing EAE, osmotic pump IP; assay type: in vivo; conditions: MTx 50 nM
Description: Each rat received 200 μl of emulsion sc, divided in the rear footpads, on day 0. Eight days later, as their body weight decreased, a precursor sign for clinical EAE, an osmotic pump was implanted IP. The pump delivered drugs at 1 μl/h for 8 days. They were filled with the peptide blockers, dissolved in Na Cl 0.15 M containing 2% Lewis serum, as vehicle.
Clinical evaluation. The severity of the disease was scored on a scale of 0 to 6, with 0.5 points for intermediate clinical findings (0: no clinical signs; 1.0: limp tail; 2.0: mild paraparesis and ataxia; 3.0: moderate paraparesis; 4.0: complete hind limb paralysis; 5.0: paralysis+incontinence; 5.5: tetraplegia; 6.0: moribund or death). Rats were weighed every day. Rats showing no clinical signs of EAE and no weight loss were excluded from the studies. The beneficial effects of K^+ blockers on EAE were evaluated by a reduction in clinical severity and in duration of the disease and in number of relapses compared with those of rats treated with the vehicle only, 0.15 M NaCl.
Data analysis. Statistical analysis was conducted using the Mann-Whitney U test. Mean differences between groups were considered significant at values of P<0.05.

[2] = toxicity in vivo, LD50 after intracerebroventricular injection; conditions: mouse, icv or intrathecal, 20 g C57/BL6 mice
Description: Groups of six to eight mice per dose were injected with 5 μl peptide solution containing 0.1% (w/v) bovine serum albumin and 0.9% (w/v) NaCl. The LD50 values are set out in Table 5.

mKv1.3 = mKv1.3 (Mus musculus, UniProt P16390); experiment: patch-clamp whole-cell recording, K+ current block; assay type: cell-based
Sequence of mKv1.3 (P16390 whole entry, the tested form may be a part): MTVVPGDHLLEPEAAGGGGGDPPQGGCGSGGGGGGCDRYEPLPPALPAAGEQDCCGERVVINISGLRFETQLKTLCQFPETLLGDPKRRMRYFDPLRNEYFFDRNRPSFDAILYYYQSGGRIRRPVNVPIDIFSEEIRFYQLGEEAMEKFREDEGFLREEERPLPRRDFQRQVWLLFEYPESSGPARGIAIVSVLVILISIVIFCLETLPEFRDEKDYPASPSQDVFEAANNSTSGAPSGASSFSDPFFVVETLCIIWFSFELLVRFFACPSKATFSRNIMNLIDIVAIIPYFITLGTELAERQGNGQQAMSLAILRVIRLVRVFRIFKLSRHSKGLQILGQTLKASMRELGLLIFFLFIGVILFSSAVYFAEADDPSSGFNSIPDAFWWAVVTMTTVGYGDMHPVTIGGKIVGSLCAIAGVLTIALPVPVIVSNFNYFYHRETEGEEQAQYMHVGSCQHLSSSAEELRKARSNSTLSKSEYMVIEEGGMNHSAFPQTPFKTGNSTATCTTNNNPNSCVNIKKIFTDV
Description: Electrophysiological experiments were carried out at 22-24° C. using the patch-clamp whole-cell recording mode. Cells were bathed with mammalian Ringer's solution (in mM): 160 NaCl, 4.5 KCl, 2 CaCl2, 1 MgCl2, and 10 HEPES (pH 7.4 with NaOH), with an osmolarity of 290-320 mOsm. […] A syringe-driven perfusion device was used to exchange the external recording bath solution. Two internal pipette solutions were used, one for measuring voltage-gated K^+ currents that contained (in mM): 155 KF, 2 MgCl2, 10 HEPES, and 10 EGTA (pH 7.2 with KOH), with an osmolarity of 290-320 mOsm and another for measuring Ca^2+-activated K^+ currents that contained (in mM): 135 K-aspartate, 8.7 CaCl2, 2 MgCl2, 10 EGTA, 10 HEPES (pH 7.2 with KOH), with an osmolarity of 290-320 mOsm. A free [Ca^2+]i of 1 μM was calculated. All currents through voltage-gated K^+ channels were elicited by 200 ms depolarising voltage steps from −80 to +40 mV. Potassium currents through KCa1.1, KCa2.1 and KCa3.1 were elicited by 1 μM internal [Ca^2+]i and 400 ms voltage ramps from −120 to 0 mV (for KCa3.1 channel and KCa1.1 channel) and from −120 to +40 mV (for KCa2.1 channel). Electrodes were pulled from glass capillaries (Science Products, Germany), and fire-polished to resistances of 2.5-5 MΩ. Membrane currents were measured with an EPC-9 or EPC-10 patch-clamp amplifier (HEKA Elektronik, Lambrecht, Germany) interfaced to a Macintosh computer running acquisition and analysis software (Pulse and PulseFit). When voltage-gated K^+ currents were measured, the capacitive and leak currents were subtracted using a P/10 procedure. Series resistance compensation (>80%) was used for currents above 2 nA. The holding potential was −80 mV in all experiments.

hKv3.2 = molecular target: T1, hKv3.2 (human (only by the printed prefix h), UniProt Q96PR1); experiment: cell-based or functional assay
T1 sequence: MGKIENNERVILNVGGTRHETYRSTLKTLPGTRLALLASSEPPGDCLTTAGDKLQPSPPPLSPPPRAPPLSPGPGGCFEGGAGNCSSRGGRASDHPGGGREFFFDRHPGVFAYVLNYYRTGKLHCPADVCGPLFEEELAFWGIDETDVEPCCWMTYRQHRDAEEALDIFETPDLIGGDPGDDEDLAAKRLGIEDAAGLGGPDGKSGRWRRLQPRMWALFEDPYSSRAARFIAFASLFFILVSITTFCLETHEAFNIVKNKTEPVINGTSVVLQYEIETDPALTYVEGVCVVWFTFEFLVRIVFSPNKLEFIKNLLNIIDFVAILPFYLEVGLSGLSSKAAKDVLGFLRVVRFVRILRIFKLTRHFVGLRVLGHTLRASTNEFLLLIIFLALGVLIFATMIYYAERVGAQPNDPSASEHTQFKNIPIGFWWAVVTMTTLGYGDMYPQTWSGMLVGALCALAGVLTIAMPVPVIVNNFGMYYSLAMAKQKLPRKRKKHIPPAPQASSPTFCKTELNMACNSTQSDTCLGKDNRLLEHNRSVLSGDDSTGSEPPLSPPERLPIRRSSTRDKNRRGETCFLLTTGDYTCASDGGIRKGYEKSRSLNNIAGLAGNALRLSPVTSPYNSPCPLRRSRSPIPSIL

hKv1.2 = hKv1.2 (human (only by the printed prefix h), UniProt P16389); experiment: cell-based or functional assay

**Q.** What does the source list for “VSCTGSKDCYAPCRKQTGCPNA-KCINK-SCKCYGC [MTx]”?
**A.** Incid [1]: 100%; Max Clin Sc, Mean ± SD ([1]; group mean, scale 0 to 6): 2.2 ± 1.5; Duration (days), first episode of EAE ([1]; individual rats): chronic (3×) and 11 days; Onset (day), first episode of EAE ([1]; individual rats): d11 day; also recorded: d8 day; also recorded: d7 day; Max Clin Sc ([1]; individual rats, scale 0 to 6): 4 and 1 (2×) and 3

**Q.** Which LD50 [2] does the source give for `CCCCC(=O)NCC(=O)N[C@H](C(=O)N[C@H](C(=O)N[C@H](C(=O)N[C@@H](CC(N)=O)C(=O)N[C@H](C(=O)N[C@@H](CCCCN)C(=O)N[C@H]1CSSC[C@@H]2NC(=O)[C@H](CCCCN)NC(=O)CNC(=O)[C@H](Cc3ccccc3)NC(=O)[C@H](CCCNC(=N)N)NC(=O)[C@H](CCSC)NC(=O)CNC(=O)[C@H](C)NC(=O)[C@H](CC(=O)O)NC(=O)[C@H](CCCCN)NC(=O)[C@@H]3CSSC[C@@H](C(=O)N[C@H](C(=O)N4CCC[C@H]4C(=O)N[C@@H](CCCCN)C(=O)O)[C@@H](C)O)NC(=O)[C@H](Cc4c[nH]cn4)NC(=O)[C@H](CSSC[C@H](NC(=O)[C@H](CCC(N)=O)NC(=O)[C@H](CCCNC(=N)N)NC(=O)[C@H](CO)NC(=O)[C@H]([C@@H](C)CC)NC(=O)[C@H](CCCCN)NC1=O)C(=O)N[C@@H](CC(C)C)C(=O)N[C@@H](CCCCN)C(=O)N1CCC[C@H]1C(=O)N3)NC(=O)[C@H](CCCCN)NC(=O)CNC(=O)[C@H](CC(N)=O)NC(=O)[C@H](CCSC)NC2=O)C(C)C)[C@@H](C)CC)[C@@H](C)CC)C(C)C` (Pentanoyl-GVIINVKCKISRQCLKPCKDAGMRFGKCMNGKCHCTPK-OH; disulfide 8-28, 14-33, 18-35) here?
**A.** 0.016 mg/kg

**Q.** For `CC[C@H](C)[C@@H]1NC(=O)[C@H](CCCCN)NC(=O)[C@@H](NC(=O)[C@H](CCCCN)NC(=O)[C@@H](NC(=O)[C@H](CC(N)=O)NC(=O)[C@@H](NC(=O)[C@@H](NC(=O)[C@@H](NC(=O)CN)C(C)C)[C@@H](C)CC)[C@@H](C)CC)C(C)C)CSSC[C@@H]2NC(=O)[C@H](CCCCN)NC(=O)CNC(=O)[C@H](Cc3ccccc3)NC(=O)[C@H](CCCNC(=N)N)NC(=O)[C@H](CCSC)NC(=O)CNC(=O)[C@H](C)NC(=O)[C@H](CCCCN)NC(=O)[C@H](CCCCN)NC(=O)[C@@H]3CSSC[C@@H](C(=O)N[C@H](C(=O)N4CCC[C@H]4C(=O)N[C@@H](CCCCN)C(=O)O)[C@@H](C)O)NC(=O)[C@H](Cc4c[nH]cn4)NC(=O)[C@H](CSSC[C@H](NC(=O)[C@H](CCC(N)=O)NC(=O)[C@H](CCCNC(=N)N)NC(=O)[C@H](CO)NC1=O)C(=O)N[C@@H](CC(C)C)C(=O)N[C@@H](CCCCN)C(=O)N1CCC[C@H]1C(=O)N3)NC(=O)[C@H](CCCCN)NC(=O)CNC(=O)[C@H](CC(N)=O)NC(=O)[C@H](CCSC)NC2=O` [[K^16]-OsK1] (H-GVIINVKCKISRQCLKPCKKAGMRFGKCMNGKCHCTPK-OH; disulfide 8-28, 14-33, 18-35), which IC50 (mKv1.3) is on record?
**A.** 0.067 ± 0.006 nM

**Q.** What about the LD50 [2] of the same molecule?
**A.** 0.003 mg/kg

**Q.** With `CC[C@H](C)[C@@H]1NC(=O)[C@H](CCCCN)NC(=O)[C@@H](NC(=O)[C@H](CCCCN)NC(=O)[C@@H](NC(=O)[C@H](CC(N)=O)NC(=O)[C@@H](NC(=O)[C@@H](NC(=O)[C@@H](NC(=O)CNC(C)=O)C(C)C)[C@@H](C)CC)[C@@H](C)CC)C(C)C)CSSC[C@@H]2NC(=O)[C@H](CCCCN)NC(=O)CNC(=O)[C@H](Cc3ccccc3)NC(=O)[C@H](CCCNC(=N)N)NC(=O)[C@H](CCSC)NC(=O)CNC(=O)[C@H](C)NC(=O)[C@H](CC(=O)O)NC(=O)[C@H](CCCNC(=N)N)NC(=O)[C@@H]3CSSC[C@@H](C(=O)N[C@H](C(=O)N4CCC[C@H]4C(=O)N[C@@H](CCCCN)C(=O)O)[C@@H](C)O)NC(=O)[C@H](Cc4c[nH]cn4)NC(=O)[C@H](CSSC[C@H](NC(=O)[C@H](CCC(N)=O)NC(=O)[C@H](CCCCN)NC(=O)[C@H](CO)NC1=O)C(=O)N[C@@H](CC(C)C)C(=O)N[C@@H](CCCCN)C(=O)N1CCC[C@H]1C(=O)N3)NC(=O)[C@H](CCCCN)NC(=O)CNC(=O)[C@H](CC(N)=O)NC(=O)[C@H](CCSC)NC2=O` (Ac-GVIINVKCKISKQCLKPCRDAGMRFGKCMNGKCHCTPK-OH; disulfide 8-28, 14-33, 18-35) as the molecule, how does the LD50 [2] read?
**A.** 0.0175 mg/kg

**Q.** Which LD50 [2] does the source give for `CC[C@H](C)[C@@H]1NC(=O)[C@H](CCCCN)NC(=O)[C@@H](NC(=O)[C@H](CCCCN)NC(=O)[C@@H](NC(=O)[C@H](CC(N)=O)NC(=O)[C@@H](NC(=O)[C@@H](NC(=O)[C@@H](NC(=O)CN)C(C)C)[C@@H](C)CC)[C@@H](C)CC)C(C)C)CSSC[C@@H]2NC(=O)[C@H](CCCCN)NC(=O)CNC(=O)[C@H](Cc3ccccc3)NC(=O)[C@H](CCCNC(=N)N)NC(=O)[C@H](CCSC)NC(=O)CNC(=O)[C@H](C)NC(=O)[C@H](CCCCN)NC(=O)[C@H](CCCCN)NC(=O)[C@@H]3CSSC[C@@H](C(=O)N[C@H](C(=O)N4CCC[C@H]4C(=O)N[C@@H](CCCCN)C(=O)O)[C@@H](C)O)NC(=O)[C@H](C)NC(=O)[C@H](CSSC[C@H](NC(=O)[C@H](CCC(N)=O)NC(=O)[C@H](CCCNC(=N)N)NC(=O)[C@H](CO)NC1=O)C(=O)N[C@@H](CC(C)C)C(=O)N[C@@H](CCC(=O)O)C(=O)N1CCC[C@H]1C(=O)N3)NC(=O)[C@H](CCCCN)NC(=O)CNC(=O)[C@H](CC(N)=O)NC(=O)[C@H](CCSC)NC2=O` [[A^34]-OsK1] (H-GVIINVKCKISRQCLEPCKKAGMRFGKCMNGKCACTPK-OH; disulfide 8-28, 14-33, 18-35) here?
**A.** 0.01 mg/kg

**Q.** With `CC[C@H](C)[C@@H]1NC(=O)[C@H](CCCCN)NC(=O)[C@@H](NC(=O)[C@H](CCCCN)NC(=O)[C@@H](NC(=O)[C@H](CC(N)=O)NC(=O)[C@@H](NC(=O)[C@@H](NC(=O)[C@@H](N)C(C)C)[C@@H](C)CC)[C@@H](C)CC)C(C)C)CSSC[C@@H]2NC(=O)[C@H](CCCCN)NC(=O)CNC(=O)[C@H](Cc3ccccc3)NC(=O)[C@H](CCCNC(=N)N)NC(=O)[C@H](CCSC)NC(=O)CNC(=O)[C@H](C)NC(=O)[C@H](CC(=O)O)NC(=O)[C@H](CCCCN)NC(=O)[C@@H]3CSSC[C@@H](C(=O)N[C@H](C(=O)N4CCC[C@H]4C(=O)N[C@@H](CCCCN)C(N)=O)[C@@H](C)O)NC(=O)[C@H](Cc4c[nH]cn4)NC(=O)[C@H](CSSC[C@H](NC(=O)[C@H](CCC(N)=O)NC(=O)[C@H](CCCNC(=N)N)NC(=O)[C@H](CO)NC1=O)C(=O)N[C@@H](CC(C)C)C(=O)N[C@@H](CCCCN)C(=O)N1CCC[C@H]1C(=O)N3)NC(=O)[C@H](CCCCN)NC(=O)CNC(=O)[C@H](CC(N)=O)NC(=O)[C@H](CCSC)NC2=O` (H-VIINVKCKISRQCLKPCKDAGMRFGKCMNGKCHCTPK-NH2; disulfide 7-27, 13-32, 17-34) as the molecule, how does the LD50 [2] read?
**A.** 0.0045 mg/kg

**Q.** With GVIINVKCKISRQCLEPCKKAGMRFGKCMNGKCHCTPK [OsK1] as the molecule, how does the ID50 (hKv3.2) read?
**A.** > 1 µM

**Q.** For Ac-GVIINVKCKISRQCLEPCKKAGMRFGKCMNGKCHCTPK-NH2 (ends and bridges not checked) [Ac-OsK1-NH2], which ID50 (hKv3.2) is on record?
**A.** > 1 µM

**Q.** And the ID50 (hKv1.2)?
**A.** ~1.3 µM

Source: patent US7745575B1 (Cellpep Pharma Inc., priority 2004, dated 2010)
